# Measurements from patent US9315491B2 (DEVELOPMENT CENTER FOR BIOTECHNOLOGY, priority 2009, dated 2016).
# Biological target: recombinant mTOR (Homo sapiens (Human), UniProt P42345)
# Assay: mTOR kinase assay (33P incorporation into 4EBP1)
# Type: biochemical
# Details: compound at 10 μM, 10 μM ATP
# Description: The activity of the compound against mTOR was examined by measuring the incorporation of ^33P from [γ-^33P]-ATP into 4EBP1. His-tagged, recombinant human 4EBP1 was expressed in E. coli, purified by nickel-nitrilotriacetic acid (Ni-NTA) resins, and stored at −80° C. Phosphorylation of 4EBP1 by mTOR was assayed in the presence or absence of the compound and performed in a final volume of 25 μl reaction buffer containing 300 ng 4EBP1, 50 ng recombinant mTOR (Invitrogen), 50 mM HEPES (pH 7.5), 1 mM EGTA, 0.01% Polysorbate 20, 10 mM MnCl2, 2.5 mM DTT, 10 μM ATP, and 0.5 μCi [γ-33P]-ATP (PerkinElmir) for 30 min at 30° C. The reactions were terminated by adding 3% phosphoric acid. The ^33P labeled 4EBP1 was transferred onto UniFilter-96 GF/B plate (PerkinElmer) and quantified by Top Count Microplate Scintillation Counter (PerkinElmer). For primary screening of kinase activity inhibition, each test compound was evaluated at […] in duplicate. […] The IC50 values of the compounds were determined after carrying out assays at eight serially diluted concentrations of each compound in duplicate. The results were analyzed using linear regression software (GraphPad Prism 5; GraphPad Software Inc.).
# IC50 value is defined as the concentration of the test compound which achieves a half-maximal inhibition of the kinase activity.
# Chain of recombinant mTOR (P42345 1360-2549): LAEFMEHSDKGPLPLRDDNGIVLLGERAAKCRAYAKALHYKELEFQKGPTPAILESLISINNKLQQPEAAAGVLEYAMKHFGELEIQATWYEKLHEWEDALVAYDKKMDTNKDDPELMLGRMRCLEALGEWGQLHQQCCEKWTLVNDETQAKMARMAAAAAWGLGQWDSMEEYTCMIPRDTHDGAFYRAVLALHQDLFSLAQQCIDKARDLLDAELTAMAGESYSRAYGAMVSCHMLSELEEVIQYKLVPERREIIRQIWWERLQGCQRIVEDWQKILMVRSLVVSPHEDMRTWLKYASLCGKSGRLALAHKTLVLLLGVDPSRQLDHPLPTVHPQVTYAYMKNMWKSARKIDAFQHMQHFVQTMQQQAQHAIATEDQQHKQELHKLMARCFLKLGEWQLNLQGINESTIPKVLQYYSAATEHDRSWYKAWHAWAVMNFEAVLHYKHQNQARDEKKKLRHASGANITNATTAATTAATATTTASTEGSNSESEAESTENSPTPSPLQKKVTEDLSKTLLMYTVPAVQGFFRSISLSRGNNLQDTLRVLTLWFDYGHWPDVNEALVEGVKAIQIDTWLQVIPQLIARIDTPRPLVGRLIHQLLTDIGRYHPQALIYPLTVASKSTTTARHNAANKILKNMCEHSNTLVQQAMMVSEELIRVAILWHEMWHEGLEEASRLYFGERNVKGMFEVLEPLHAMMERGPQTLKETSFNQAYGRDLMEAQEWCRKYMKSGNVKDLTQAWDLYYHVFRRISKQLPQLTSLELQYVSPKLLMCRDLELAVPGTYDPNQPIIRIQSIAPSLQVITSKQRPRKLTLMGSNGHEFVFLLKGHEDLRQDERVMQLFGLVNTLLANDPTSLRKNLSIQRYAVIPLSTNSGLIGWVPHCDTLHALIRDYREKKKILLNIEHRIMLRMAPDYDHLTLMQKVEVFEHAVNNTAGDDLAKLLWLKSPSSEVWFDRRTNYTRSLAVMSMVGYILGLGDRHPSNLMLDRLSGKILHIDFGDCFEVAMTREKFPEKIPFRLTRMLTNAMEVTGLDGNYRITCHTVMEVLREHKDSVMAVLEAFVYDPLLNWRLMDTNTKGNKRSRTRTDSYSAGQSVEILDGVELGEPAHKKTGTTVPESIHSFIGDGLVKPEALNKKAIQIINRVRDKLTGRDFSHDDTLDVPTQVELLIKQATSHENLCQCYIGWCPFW
row,inhibition at 10 µM,SMILES
1,84%,"CSc1c(Cl)nc(-c2ccc(NC(=O)Nc3nccs3)cc2)nc1N1CCOCC1 [MTR-0200, 1-[4-(4-Chloro-5-methylsulfanyl-6-morpholin-4-yl-pyrimidin-2-yl)-phenyl]-3-thiazol-2-yl-urea]"
2,96%,"CNC(=O)Nc1ccc(-c2ncc(SC)c(N3CCOCC3)n2)cc1 [MTR-0210, 1-Methyl-3-[4-(5-methylsulfanyl-4-morpholin-4-yl-pyrimidin-2-yl)-phenyl]-urea]"
3,89%,"COc1ccc(NC(=O)Nc2ccc(-c3ncc(OC)c(N4CCOCC4)n3)cc2)cc1OC [MTR-0239, 1-(3,4-Dimethoxy-phenyl)-3-[4-(5-methoxy-4-morpholin-4-yl-pyrimidin-2-yl)-phenyl]-urea]"
4,94%,"CCOc1c(C(=O)O)nc(-c2ccc(NC(=O)Nc3cccnc3)cc2)nc1N1CCOCC1 [MTR-0245, 5-Ethoxy-6-morpholin-4-yl-2-[4-(3-pyridin-3-yl-ureido)-phenyl]-pyrimidine-4-carboxylic acid]"
5,90%,"CSc1c(Cl)nc(-c2ccc(NC(=O)Nc3ccc4c(c3)OCO4)cc2)nc1N1CCOCC1 [MTR-0256, 1-Benzo[1,3]dioxol-5-yl-3-[4-(4-chloro-5-methylsulfanyl-6-morpholin-4-yl-pyrimidin-2-yl)-phenyl]-urea]"
6,86%,"CCOC(=O)c1ccc(NC(=O)Nc2ccc(-c3ncc(SC)c(N4CCOCC4)n3)cc2)cc1 [MTR-0264, 4-{3-[4-(5-Methylsulfanyl-4-morpholin-4-yl-pyrimidin-2-yl)-phenyl]-ureido}-benzoic acid ethyl ester]"
7,93%,"CSc1cnc(-c2ccc(NC(N)=O)cc2)nc1N1CCOCC1 [MTR-0286, [4-(5-Methylsulfanyl-4-morpholin-4-yl-pyrimidin-2-yl)-phenyl]-urea]"
8,91%,"CSc1cnc(-c2ccc(Nc3nc4ccccc4[nH]3)cc2)nc1N1CCOCC1 [MTR-0289, (1H-Benzoimidazol-2-yl)-[4-(5-methylsulfanyl-4-morpholin-4-yl-pyrimidin-2-yl)-phenyl]-amine]"
9,89%,"CSc1c(Cl)nc(-c2ccc(NC(=O)Nc3ccc(Br)nc3)cc2)nc1N1CCOCC1 [MTR-0291, 1-(6-Bromo-pyridin-3-yl)-3-[4-(4-chloro-5-methylsulfanyl-6-morpholin-4-yl-pyrimidin-2-yl)-phenyl]-urea]"
10,90%,"CSc1c(Cl)nc(-c2ccc(NC(=O)NC(C)C)cc2)nc1N1CCOCC1 [MTR-0306, 1-[4-(4-Chloro-5-methylsulfanyl-6-morpholin-4-yl-pyrimidin-2-yl)-phenyl]-3-isopropyl-urea]"
11,82%,"CSc1c(Cl)nc(-c2ccc(NC(=O)O)cc2)nc1N1CCOCC1 [MTR-0307, [4-(4-Chloro-5-methylsulfanyl-6-morpholin-4-yl-pyrimidin-2-yl)-phenyl]-carbamic acid]"
12,94%,"COc1cnc(-c2ccc(NC(=O)Nc3ccc(OCCN(C)C)cc3)cc2)nc1N1CCOCC1 [MTR-0312, 1-[4-(2-Dimethylamino-ethoxy)-phenyl]-3-[4-(5-methoxy-4-morpholin-4-yl-pyrimidin-2-yl)-phenyl]-urea]"
13,93%,"CSc1cnc(-c2ccc(NC(=O)Nc3ccc4c(c3)OCO4)cc2)nc1N1CCOCC1 [MTR-0317, 1-Benzo[1,3]dioxol-5-yl-3-[4-(5-methylsulfanyl-4-morpholin-4-yl-pyrimidin-2-yl)-phenyl]-urea]"
14,91%,"CSc1cnc(-c2ccc(NC(=O)Nc3ccc(N4CCN(C)CC4)cn3)cc2)nc1N1CCOCC1 [MTR-0318, 1-[5-(4-Methyl-piperazin-1-yl)-pyridin-2-yl]-3-[4-(5-methylsulfanyl-4-morpholin-4-yl-pyrimidin-2-yl)-phenyl]-urea]"
15,84%,"CSc1cnc(-c2ccc(NC(=S)Nc3ccc(N4CCOCC4=O)cc3)cc2)nc1N1CCOCC1 [MTR-0319, 1-[4-(5-Methylsulfanyl-4-morpholin-4-yl-pyrimidin-2-yl)-phenyl]-3-[4-(3-oxo-morpholin-4-yl)-phenyl]-thiourea]"
16,97%,"CSc1c(Cl)nc(-c2ccc(NC(=O)Nc3ccc(N)cc3)cc2)nc1N1CCOCC1 [MTR-0329, 1-(4-Amino-phenyl)-3-[4-(4-chloro-5-methylsulfanyl-6-morpholin-4-yl-pyrimidin-2-yl)-phenyl]-urea]"

# More lines, now with the values behind:
row,SMILES,inhibition at 10 µM
1,"CCOC(=O)c1ccc(NC(=O)Nc2ccc(-c3nc(Cl)c(SC)c(N4CCOCC4)n3)cc2)cc1 [MTR-0212, 4-{3-[4-(4-Chloro-5-methylsulfanyl-6-morpholin-4-yl-pyrimidin-2-yl)-phenyl]-ureido}-benzoic acid ethyl ester]",85%
2,"CSc1c(Cl)nc(-c2ccc(NC(=O)Nc3ccc(N4CCOCC4=O)cc3)cc2)nc1N1CCOCC1 [MTR-0213, 1-[4-(4-Chloro-5-methylsulfanyl-6-morpholin-4-yl-pyrimidin-2-yl)-phenyl]-3-[4-(3-oxo-morpholin-4-yl)-phenyl]-urea]",84%
3,"CSc1c(Cl)nc(-c2ccc(NC(=O)Nc3ccc(N4CCOCC4)nc3)cc2)nc1N1CCOCC1 [MTR-0237, 1-[4-(4-Chloro-5-methylsulfanyl-6-morpholin-4-yl-pyrimidin-2-yl)-phenyl]-3-(6-morpholin-4-yl-pyridin-3-yl)-urea]",85%
4,"CCOC(=O)c1nc(-c2ccc(Nc3nc4ccccc4[nH]3)cc2)nc(N2CCOCC2)c1OCC [MTR-0243, 2-[4-(1H-Benzoimidazol-2-ylamino)-phenyl]-5-ethoxy-6-morpholin-4-yl-pyrimidine-4-carboxylic acid ethyl ester]",92%
5,"CCOC(=O)c1nc(-c2ccc(NC(=O)Nc3cccc(NC(=O)C(F)(F)F)c3)cc2)nc(N2CCOCC2)c1OCC [MTR-0252, 5-Ethoxy-6-morpholin-4-yl-2-(4-{3-[3-(2,2,2-trifluoro-acetylamino)-phenyl]-ureido}-phenyl)-pyrimidine-4-carboxylic acid ethyl ester]",82%
6,"CCOC(=O)c1nc(-c2ccc(NC(=O)Nc3ccc(N4CCN(C)CC4)nc3)cc2)nc(N2CCOCC2)c1OCC [MTR-0275, 5-Ethoxy-2-(4-{3-[6-(4-methyl-piperazin-1-yl)-pyridin-3-yl]-ureido}-phenyl)-6-morpholin-4-yl-pyrimidine-4-carboxylic acid ethyl ester]",97%
7,"CCOC(=O)c1nc(-c2ccc(NC(=O)Nc3ccc(N4CCOCC4)nc3)cc2)nc(N2CCOCC2)c1OCC [MTR-0276, 5-Ethoxy-6-morpholin-4-yl-2-{4-[3-(6-morpholin-4-yl-pyridin-3-yl)-ureido]-phenyl}-pyrimidine-4-carboxylic acid ethyl ester]",82%
8,"CSc1c(Cl)nc(-c2ccc(NC(=S)Nc3ccc(C(=O)O)cc3)cc2)nc1N1CCOCC1 [MTR-0293, 4-{3-[4-(4-Chloro-5-methylsulfanyl-6-morpholin-4-yl-pyrimidin-2-yl)-phenyl]-thioureido}-benzoic acid]",83%
9,"CCOC(=O)c1nc(-c2ccc(NC(=O)Nc3cccc4[nH]ncc34)cc2)nc(N2CCOCC2)c1OCC [MTR-0297, 5-Ethoxy-2-{4-[3-(1H-indazol-4-yl)-ureido]-phenyl}-6-morpholin-4-yl-pyrimidine-4-carboxylic acid ethyl ester]",83%
10,"CSc1c(Cl)nc(-c2ccc(NC(=S)Nc3ccc(N4CCOCC4=O)cc3)cc2)nc1N1CCOCC1 [MTR-0304, 1-[4-(4-Chloro-5-methylsulfanyl-6-morpholin-4-yl-pyrimidin-2-yl)-phenyl]-3-[4-(3-oxo-morpholin-4-yl)-phenyl]-thiourea]",90%
11,"CSc1c(Cl)nc(-c2ccc(Nc3nc4ccccc4[nH]3)cc2)nc1N1CCOCC1 [MTR-0305, (1H-Benzoimidazol-2-yl)-[4-(4-chloro-5-methylsulfanyl-6-morpholin-4-yl-pyrimidin-2-yl)-phenyl]-amine]",82%
12,"COc1cnc(-c2ccc(Nc3nc4ccccc4[nH]3)cc2)nc1N1CCOCC1 [MTR-0310, (1H-Benzoimidazol-2-yl)-[4-(5-methoxy-4-morpholin-4-yl-pyrimidin-2-yl)-phenyl]-amine]",86%
13,"CCOc1cnc(-c2ccc(NC(=O)Nc3ccc(N4CCSCC4)cc3)cc2)nc1N1CCOCC1 [MTR-0324, 1-[4-(5-Ethoxy-4-morpholin-4-yl-pyrimidin-2-yl)-phenyl]-3-(4-thiomorpholin-4-yl-phenyl)-urea]",81%
14,"CSc1c(Cl)nc(-c2ccc(NC(=O)Nc3ccc(N4CCOCC4)cn3)cc2)nc1N1CCOCC1 [MTR-0328, 1-[4-(4-Chloro-5-methylsulfanyl-6-morpholin-4-yl-pyrimidin-2-yl)-phenyl]-3-(5-morpholin-4-yl-pyridin-2-yl)-urea]",85%
15,"COc1cnc(-c2ccc(NC(=O)Nc3ccc(N4CCN(C)CC4)cn3)cc2)nc1N1CCOCC1 [MTR-0334, 1-[4-(5-Methoxy-4-morpholin-4-yl-pyrimidin-2-yl)-phenyl]-3-[5-(4-methyl-piperazin-1-yl)-pyridin-2-yl]-urea]",93%
16,"COc1cnc(-c2ccc(NC(=S)Nc3ccc(N4CCOCC4=O)cc3)cc2)nc1N1CCOCC1 [MTR-0335, 1-[4-(5-Methoxy-4-morpholin-4-yl-pyrimidin-2-yl)-phenyl]-3-[4-(3-oxo-morpholin-4-yl)-phenyl]-thiourea]",89%
